Data: the supplement of paper PMC10307832

Assays:
Experiment in all cases: relative viability (nuclei count vs DMSO), 5 days (fraction); higher = more cells survive
Calu-6 = system: Calu-6
Summary of the method: (§1)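 Lung cancer cell lines were seeded in 1536-well plates and dosed by pin tool the next day, with either a single drug or a fixed anchor-drug dose combined with five library-drug doses (not always all listed) spaced in √10 steps. Five days later, one step fixed the cells and stained their nuclei (final 0.05% Triton X-100, 1% formaldehyde, 1 ug/ml Hoechst), and nuclei were counted on 4× images. Relative viability is the nuclei count in treated wells divided by the count in vehicle wells, and each value is the median of duplicate plates.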

A549 = system: A549
Summary of the method: as §1

NCI-H1703 = system: NCI-H1703
Summary of the method: as §1

HCC-366 = system: HCC-366
Summary of the method: as §1

NCI-H727 = system: NCI-H727
Summary of the method: as §1

EBC-1 = system: EBC-1
Summary of the method: as §1

EPLC-272H = system: EPLC-272H
Summary of the method: as §1

ChaGo-K-1 = system: ChaGo-K-1
Summary of the method: as §1

NCI-H1299 = system: NCI-H1299
Summary of the method: as §1

IA-LM = system: IA-LM
Summary of the method: as §1

NCI-H1563 = system: NCI-H1563
Summary of the method: as §1

`Oc1nc(-c2ccc(C(F)(F)F)cc2)nc2c1CSCC2` [XAV939] + CC1(C)CCC(c2ccc(Cl)cc2)=C(CN2CCN(c3ccc(C(=O)NS(=O)(=O)c4ccc(N[C@H](CCN5CCOCC5)CSc5ccccc5)c(S(=O)(=O)C(F)(F)F)c4)cc3)CC2)C1 [Navitoclax] (partner 0.5 µM) was tested, and the relative viability (Calu-6; first compound 0.08 µM) was 0.909, the relative viability (Calu-6; first compound 0.253 µM) was 0.779 and the relative viability (Calu-6; first compound 0.8 µM) was 0.867. For the same molecule, the relative viability (Calu-6; first compound 2.53 µM) was 0.857, the relative viability (A549; first compound 0.08 µM) was 1.49 and the relative viability (A549; first compound 0.253 µM) was 1.06. The relative viability (A549; first compound 0.8 µM) was 1.12, the relative viability (A549; first compound 2.53 µM) was 1.06 and the relative viability (NCI-H1703; first compound 0.08 µM) was 1.33. For the same molecule, the relative viability (NCI-H1703; first compound 0.253 µM) was 1.35, the relative viability (NCI-H1703; first compound 0.8 µM) was 0.89 and the relative viability (NCI-H1703; first compound 2.53 µM) was 0.844. The relative viability (HCC-366; first compound 0.08 µM) was 1.12, the relative viability (HCC-366; first compound 0.253 µM) was 1.09 and the relative viability (HCC-366; first compound 0.8 µM) was 1.05. For the same molecule, the relative viability (HCC-366; first compound 2.53 µM) was 0.942, the relative viability (NCI-H727; first compound 0.08 µM) was 0.407 and the relative viability (NCI-H727; first compound 0.253 µM) was 0.231. For the same molecule, the relative viability (NCI-H727; first compound 0.8 µM) was 0.362, the relative viability (NCI-H727; first compound 2.53 µM) was 0.44 and the relative viability (EBC-1; first compound 0.08 µM) was 0.489. For the same molecule, the relative viability (EBC-1; first compound 0.253 µM) was 0.413, the relative viability (EBC-1; first compound 0.8 µM) was 0.404 and the relative viability (EBC-1; first compound 2.53 µM) was 0.447. For the same molecule, the relative viability (EPLC-272H; first compound 0.08 µM) was 1.18, the relative viability (EPLC-272H; first compound 0.253 µM) was 1.08 and the relative viability (EPLC-272H; first compound 0.8 µM) was 1.19. The relative viability (EPLC-272H; first compound 2.53 µM) was 1.11, the relative viability (ChaGo-K-1; first compound 0.08 µM) was 0.898 and the relative viability (ChaGo-K-1; first compound 0.253 µM) was 0.914. It also gave a relative viability (ChaGo-K-1; first compound 0.8 µM) of 0.998, a relative viability (ChaGo-K-1; first compound 2.53 µM) of 1.04 and a relative viability (NCI-H1299; first compound 0.08 µM) of 1.07. For the same molecule, the relative viability (NCI-H1299; first compound 0.253 µM) was 1.02, the relative viability (NCI-H1299; first compound 0.8 µM) was 1.1 and the relative viability (NCI-H1299; first compound 2.53 µM) was 1.04. The relative viability (IA-LM; first compound 0.08 µM) was 0.89, the relative viability (IA-LM; first compound 0.253 µM) was 0.698 and the relative viability (IA-LM; first compound 0.8 µM) was 0.781. It also gave a relative viability (IA-LM; first compound 2.53 µM) of 0.463.
In the case of `Oc1nc(-c2ccc(C(F)(F)F)cc2)nc2c1CSCC2` [XAV939] + O=C(CCCCCCC(=O)Nc1ccccc1)NO [Vorinostat] (partner 1 µM), the relative viability (HCC-366; first compound 0.08 µM) is reported as 0.398, the relative viability (HCC-366; first compound 0.253 µM) is reported as 0.25 and the relative viability (HCC-366; first compound 0.8 µM) is reported as 0.293. It also gave a relative viability (HCC-366; first compound 2.53 µM) of 0.189, a relative viability (NCI-H727; first compound 0.08 µM) of 1.25 and a relative viability (NCI-H727; first compound 0.8 µM) of 1. It also gave a relative viability (NCI-H727; first compound 2.53 µM) of 1.02, a relative viability (EPLC-272H; first compound 0.08 µM) of 0.369 and a relative viability (EPLC-272H; first compound 0.253 µM) of 0.339. The relative viability (EPLC-272H; first compound 0.8 µM) was 0.746, the relative viability (EPLC-272H; first compound 2.53 µM) was 0.324 and the relative viability (ChaGo-K-1; first compound 0.08 µM) was 0.751. It also gave a relative viability (ChaGo-K-1; first compound 0.253 µM) of 0.707, a relative viability (ChaGo-K-1; first compound 0.8 µM) of 0.747 and a relative viability (ChaGo-K-1; first compound 2.53 µM) of 0.643. It also gave a relative viability (IA-LM; first compound 0.08 µM) of 1.08, a relative viability (IA-LM; first compound 0.253 µM) of 0.664 and a relative viability (IA-LM; first compound 0.8 µM) of 0.951. It also gave a relative viability (IA-LM; first compound 2.53 µM) of 0.778.
In the case of `C=C1C(=O)O[C@@H](CCCCCCCC)[C@@H]1C(=O)O` [C-75] + Nc1nc2[nH]cc(CCc3ccc(C(=O)N[C@@H](CCC(=O)O)C(=O)O)cc3)c2c(=O)[nH]1 [Pemetrexed] (partner 0.2 µM), the relative viability (HCC-366; first compound 0.08 µM) is reported as 0.156, the relative viability (HCC-366; first compound 0.253 µM) is reported as 0.183 and the relative viability (HCC-366; first compound 0.8 µM) is reported as 0.149. The relative viability (HCC-366; first compound 2.53 µM) was 0.22, the relative viability (HCC-366; first compound 8 µM) was 0.188 and the relative viability (EPLC-272H; first compound 0.08 µM) was 0.313. It also gave a relative viability (EPLC-272H; first compound 0.253 µM) of 0.267, a relative viability (EPLC-272H; first compound 0.8 µM) of 0.329 and a relative viability (EPLC-272H; first compound 2.53 µM) of 0.202. It also gave a relative viability (EPLC-272H; first compound 8 µM) of 0.24, a relative viability (ChaGo-K-1; first compound 0.08 µM) of 0.265 and a relative viability (ChaGo-K-1; first compound 0.253 µM) of 0.259. The relative viability (ChaGo-K-1; first compound 0.8 µM) was 0.239, the relative viability (ChaGo-K-1; first compound 2.53 µM) was 0.243 and the relative viability (ChaGo-K-1; first compound 8 µM) was 0.254. For the same molecule, the relative viability (NCI-H1563; first compound 0.08 µM) was 0.8, the relative viability (NCI-H1563; first compound 0.253 µM) was 0.915 and the relative viability (NCI-H1563; first compound 0.8 µM) was 0.753. It also gave a relative viability (NCI-H1563; first compound 2.53 µM) of 0.666 and a relative viability (NCI-H1563; first compound 8 µM) of 0.924.
